Earlier results on 75 compounds are cited in paper PMC12525602, “Identification of Selective α-Glucosidase Inhibitors via Virtual Screening with Machine Learning” (Molecules, 2025).

The subject of one data set is α-glucosidase. Conditions: Table S5 modeling dataset; activity label 1 = active, 0 = inactive; cited from earlier work.
Take `O=C(O)C1(O)C[C@@H](O)C(O)[C@H](O)C1` (stereo partly drawn) [compound 91]: the activity is listed as 0. For the compound `CC1CCCN(c2ccc(/C=N/Nc3nc(-c4ccc(O)c(O)c4)cs3)cc2)C1` (stereo not drawn) [compound 93], the activity is listed as 0.

Take `O=C(NNS(=O)(=O)c1ccc(OC(F)(F)F)cc1)c1cc2cc(F)ccc2[nH]1` [compound 94]: the activity is listed as 0. For `O=C(c1ccccc1)c1ccc2nc(-c3ccc(F)cc3)[nH]c2c1` [compound 95], the activity is listed as 0.

For `N#Cc1c(-c2ccc(Cl)cc2)cc(-c2cccnc2)c(C#N)c1N` [compound 97], the activity is on record as 0.

Turning to `CCCCCCCC/C=C\CCCCCCCCCC(=O)O` [compound 98], the activity is given as 0. In the case of `Brc1cccc(CSc2nnc(COc3cccc4cccnc34)o2)c1` [compound 99], the activity is listed as 0. Take `COc1cccc(C(=O)C2C(O)c3ccccc3S(=O)(=O)N2CC(=O)Nc2ccc([N+](=O)[O-])cc2)c1` (stereo not drawn) [compound 101]: the activity is recorded as 0. For `COc1ccccc1Nc1nnc(-c2cc3cc(C#N)ccc3[nH]2)s1` [compound 102], the activity is recorded as 0. For `N#Cc1c(-c2ccc(Cl)cc2)cc(-c2ccc([N+](=O)[O-])cc2)c(C#N)c1N` [compound 103], the activity is reported as 0. For `O=c1c(O[C@@H]2OC[C@H](O)[C@H](O)[C@H]2O)c(-c2ccc(O)c(O)c2)oc2cc(O)cc(O)c12` [compound 104], the activity is 0.

As for `COc1ccc(S(=O)(=O)NNC(=O)c2cc3cc(F)ccc3[nH]2)cc1` [compound 105], the activity was 0. For the compound `CC1CCCN(c2ccc(/C=N/Nc3nc(-c4ccc(C#N)cc4)cs3)cc2)C1` (stereo not drawn) [compound 106], the activity is recorded as 0. Regarding `Brc1ccc(CSc2nnc(COc3cccc4cccnc34)o2)cc1` [compound 107], the activity was 0. Take `Fc1ccc(CSc2nnc(COc3cccc4cccnc34)o2)c(F)c1` [compound 108]: the activity was 0. Regarding `O=C(NNS(=O)(=O)c1ccc([N+](=O)[O-])cc1)c1cc2cc(F)ccc2[nH]1` [compound 109], the activity is 0.

As to `O=C(c1ccccc1)c1ccc2nc(-c3ccc(Cl)cc3Cl)[nH]c2c1` [compound 110], the activity is 0. For `Clc1ccc(CSc2nnc(COc3cccc4cccnc34)o2)c(Cl)c1` [compound 111], the activity is 0. Regarding `CC1CCN(c2ccc(/C=N/Nc3nc(-c4ccccc4)cs3)cc2)CC1` [compound 112], the activity was 0. In the case of `N#Cc1c(-c2ccncc2)cc(-c2ccc(Cl)cc2)c(C#N)c1N` [compound 113], the activity is given as 0. Consider `O=C(c1ccccc1)c1ccc2nc(-c3ccc(Cl)cc3)[nH]c2c1` [compound 114], for which the activity is on record as 0. For `Fc1ccc(-n2cc(CSc3nnc(COc4cccc5cccnc45)o3)nn2)cc1` [compound 115], the activity was 0. Regarding `c1ccc(CSc2nnc(COc3cccc4cccnc34)o2)cc1` [compound 116], the activity is given as 0. For `C[C@@H]1O[C@@H](Oc2c(-c3ccc(O)cc3)oc3cc(O)cc(O)c3c2=O)[C@H](O)[C@H](O)[C@H]1O` [compound 117], the activity was 0.

On to `COc1cccc(C(=O)C2C(O)c3ccccc3S(=O)(=O)N2CC(=O)Nc2cccc(Br)c2)c1` (stereo not drawn) [compound 118], for which the activity was 0. For the compound `CC1CCCN(c2ccc(/C=N/Nc3nc(-c4ccccc4)cs3)cc2)C1` (stereo not drawn) [compound 119], the activity is given as 0. Regarding `N#Cc1c(-c2ccc(Cl)cc2)cc(-c2cccc([N+](=O)[O-])c2)c(C#N)c1N` [compound 120], the activity is listed as 0. As for `Clc1ccc(CSc2nnc(COc3cccc4cccnc34)o2)cc1` [compound 121], the activity was 0.

Consider `N#Cc1ccc(S(=O)(=O)NNC(=O)c2cc3cc(F)ccc3[nH]2)cc1` [compound 122], for which the activity was 0. As for `CCCSc1nnc(COc2cccc3cccnc23)o1` [compound 123], the activity was 0.

Take `N#Cc1ccc2[nH]c(-c3nnc(Nc4cccc(F)c4)s3)cc2c1` [compound 124]: the activity was 0. Regarding `N#Cc1ccc2[nH]c(-c3nnc(Nc4ccccc4Cl)s3)cc2c1` [compound 125], the activity was 0. On to `CC1(C)CC[C@]2(C(=O)O)CC[C@]3(C)C(=CC[C@@H]4[C@@]5(C)CC[C@H](O)C(C)(C)[C@@H]5CC[C@]43C)[C@@H]2C1` [compound 126], for which the activity was 0. Turning to `COC(=O)/C=C/c1ccc(O)c(OC)c1` [compound 127], the activity is 0. Consider `Fc1ccc(CSc2nnc(COc3cccc4cccnc34)o2)cc1` [compound 128], for which the activity was 0. `CCCCCC/C=C\CCCCCCCC(=O)O` [compound 129]: the activity is reported as 0. On to `CC(C)=CCC1(O)C(O)=C(C(=O)CC(C)C)C(=O)C1(O)C(=O)C=C(C)C` (stereo not drawn) [compound 130], for which the activity is 0.

Regarding `N#Cc1c(-c2ccc(Cl)cc2)cc(-c2ccc(Cl)cc2)c(C#N)c1N` [compound 131], the activity is given as 0. For the compound `C[n+]1cccc(C(=O)[O-])c1` [compound 133], the activity is 0.

As to `O=C(c1ccccc1)c1ccc2nc(-c3ccc(O)cc3)[nH]c2c1` [compound 135], the activity was 0. For `O=C(NNS(=O)(=O)c1cccc(Cl)c1)c1cc2cc(F)ccc2[nH]1` [compound 136], the activity is given as 0. In the case of `COc1cc(/C=C2\CC(=O)N(C(=O)CN3CCOCC3)C2=O)ccc1O` [compound 137], the activity is on record as 0.

The same data set, now with this note: activity label of the modeling dataset, Table S5 (1 = active, 0 = inactive); cited from earlier work.
For the compound `Fc1ccc(Cn2cc(CSc3nnc(COc4cccc5cccnc45)o3)nn2)cc1` [compound 69], the activity is listed as 0.

`CC1CCCN(c2ccc(/C=N/Nc3nc(-c4ccc(Br)cc4)cs3)cc2)C1` (stereo not drawn) [compound 70]: the activity is 0. For the compound `Clc1cccc(Cl)c1-n1cc(CSc2nnc(COc3cccc4cccnc34)o2)nn1` [compound 71], the activity was 0. `O=[N+]([O-])c1ccc(-n2cc(CSc3nnc(COc4cccc5cccnc45)o3)nn2)cc1` [compound 72]: the activity is 0. Take `Clc1ccc(Cn2cc(CSc3nnc(COc4cccc5cccnc45)o3)nn2)cc1` [compound 73]: the activity is given as 0.

Turning to `N#Cc1c(-c2ccc([N+](=O)[O-])cc2)cc(-c2cccnc2)c(C#N)c1N` [compound 75], the activity is given as 0. With `CC1OC(Oc2cc(-c3oc4cc(O)cc(O)c4c(=O)c3O)cc(O)c2O)C(O)C(O)C1O` (stereo not drawn) [compound 76], the activity is on record as 0. Consider `CCCCCCn1cc(CSc2nnc(COc3cccc4cccnc34)o2)nn1` [compound 77], for which the activity is listed as 0.

Regarding `CC1CCCN(c2ccc(/C=N/Nc3nc(-c4ccc(F)cc4F)cs3)cc2)C1` (stereo not drawn) [compound 78], the activity is 0. Consider `CC1CCN(c2ccc(/C=N/Nc3nc(-c4ccc(O)c(O)c4)cs3)cc2)CC1` [compound 79], for which the activity is 0. Take `Fc1ccc(CSc2nnc(COc3cccc4cccnc34)o2)cc1F` [compound 80]: the activity is listed as 0. Turning to `Brc1ccc(-n2cc(CSc3nnc(COc4cccc5cccnc45)o3)nn2)cc1` [compound 81], the activity is given as 0. As to `CCCCCn1cc(CSc2nnc(COc3cccc4cccnc34)o2)nn1` [compound 82], the activity is 0. As to `CC1CCN(c2ccc(/C=N/Nc3nc(-c4ccc(Cl)cc4)cs3)cc2)CC1` [compound 83], the activity is 0. As for `CC1CCN(c2ccc(/C=N/Nc3nc(-c4ccc(F)cc4F)cs3)cc2)CC1` [compound 84], the activity was 0. `C=CCSc1nnc(COc2cccc3cccnc23)o1` [compound 85]: the activity is listed as 0. As for `CC(C)=CCSc1nnc(COc2cccc3cccnc23)o1` [compound 86], the activity was 0. Regarding `CC1CCCN(c2ccc(/C=N/Nc3nc(-c4ccc(F)cc4)cs3)cc2)C1` (stereo not drawn) [compound 87], the activity is on record as 0. On to `CC(C)c1ccc(S(=O)(=O)NNC(=O)c2cc3cc(F)ccc3[nH]2)cc1` [compound 88], for which the activity was 0. `O=[N+]([O-])c1ccc(CSc2nnc(COc3cccc4cccnc34)o2)cc1` [compound 89]: the activity is 0.

With `O=C(NNS(=O)(=O)c1cccc2ncccc12)c1cc2cc(F)ccc2[nH]1` [compound 90], the activity was 0.

Staying with this data set, now noted: activity label of the modeling dataset, Table S5; cited from earlier work.
For `CC(C)=CCC1=C(O)[C@@](O)(CC=C(C)C)C(=O)C(C(=O)CC(C)C)=C1O` [compound 138], the activity is 0. For the compound `O=c1c(O[C@@H]2O[C@@H](CO)[C@H](O)[C@H]2O)c(-c2ccc(O)c(O)c2)oc2cc(O)cc(O)c12` [compound 139], the activity was 0. For `CC1CCCN(c2ccc(/C=N/Nc3nc(-c4ccc(O)cc4)cs3)cc2)C1` (stereo not drawn) [compound 140], the activity is listed as 0. As to `CCCCCCCCCCCCCC(=O)O` [compound 141], the activity is reported as 0. In the case of `COc1cc(/C=N/N=C2\C(=O)Nc3ccccc32)ccc1OCc1cn(Cc2ccccc2C)nn1` [compound 142], the activity is listed as 0. Consider `COc1cc(/C=N/N=C2\C(=O)Nc3ccccc32)ccc1OCc1cn(Cc2ccccc2F)nn1` [compound 143], for which the activity is on record as 0. For `COc1cc(/C=N/N=C2\C(=O)Nc3ccccc32)ccc1OCc1cn(Cc2ccc(F)cc2)nn1` [compound 144], the activity was 0.

As for `O=C1/C(=N\N=C\c2ccc(OCc3cn(Cc4ccccc4)nn3)cc2)c2ccccc2N1c1ccc(Br)cc1` [compound 145], the activity was 0. For the compound `Cc1ccccc1Cn1cc(COc2ccc(/C=N/N=C3\C(=O)N(c4ccc(Br)cc4)c4ccccc43)cc2)nn1` [compound 146], the activity is 0. `Cc1ccc(Cn2cc(COc3ccc(/C=N/N=C4\C(=O)N(c5ccc(Br)cc5)c5ccccc54)cc3)nn2)cc1` [compound 147]: the activity is given as 0.

Regarding `O=C1/C(=N\N=C\c2ccc(OCc3cn(Cc4ccccc4F)nn3)cc2)c2ccccc2N1c1ccc(Br)cc1` [compound 148], the activity is 0. As to `O=C(CSc1nc2ccccc2cc1-c1nc2ccccc2[nH]1)Nc1cccc(Cl)c1` [compound 149], the activity is on record as 1.
